“Also recorded” adds a separate entry of the source.
Legend:
Format in all cases: physicochemical
[1] = Physical and chemical stability under 25° C./60% RH and 40° C./75% RH; conditions: for degradation and/or form change: 25° C./60% RH and 40° C./75% RH, one week; for Stability results (Open for 1 week) Form change: XRPD; for Initial Purity (area %): before storage
Protocol: Stability measurements were analyzed with a Waters H-Class ultra-performance liquid chromatography (UPLC) system using the conditions and parameters listed below.
Approximately 20 mg of a solid sample of each crystalline form was added to a HPLC vial (open dish) and then stored under 25° C./60% RH or 40° C./75% RH. After one week, the samples were removed from the test conditions and analyzed by HPLC and XRPD to assess chemical and physical stability, respectively.

[2] = Dynamic Vapor Sorption (DVS); conditions: for moisture uptake / hygroscopicity: 25° C./80% RH; for hygroscopicity: DVS
Protocol: Dynamic Vapor Sorption (DVS) analysis was conducted using a SMS (Surface Measurement Systems) DVS Intrinsic analyzer using the parameters listed below. [table]

[3] = Form E exposed to ambient condition; conditions: 5 hours
[4] = Competitive slurry of Form A and Form C of Compound 1; conditions: 2 days
Source text: The obtained solids were isolated for XRPD analysis.

**Q.** What does the source list for `CCCn1cc(-n2c(Cl)c(Sc3cccc(C(=O)O)c3F)c3ccc(Cl)c(F)c32)cn1` [Form A]?
**A.** degradation and/or form change [1]: no significant degradation and/or form change; Stability results (Open for 1 week) Appearance ([1]; 25° C./60% RH): No; Stability results (Open for 1 week) Purity (area %) ([1]; 25° C./60% RH): 99.82 area %; Stability results (Open for 1 week) Form change ([1]; 25° C./60% RH): No; Stability results (Open for 1 week) Appearance ([1]; 40° C./75% RH): No; Stability results (Open for 1 week) Purity (area %) ([1]; 40° C./75% RH): 99.75 area %; Stability results (Open for 1 week) Form change ([1]; 40° C./75% RH): No; Initial Purity (area %) [1]: 99.78 area %

**Q.** With `CCCn1cc(-n2c(Cl)c(Sc3cccc(C(=O)O)c3F)c3ccc(Cl)c(F)c32)cn1` [Form 1 of Compound 1-A] as the molecule, how does the moisture uptake [2] read?
**A.** 0.32%

**Q.** What about the hygroscopicity [2] of the same molecule?
**A.** slightly hygroscopic

**Q.** What about the hygroscopicity ([2]; listed as crystalline Form 1) of the same molecule?
**A.** slightly hygroscopic; also recorded: non-hygroscopic

**Q.** What about the “degradation and/or form change” value [1] of the same molecule?
**A.** no significant degradation and/or form change

**Q.** And the “Stability results (Open for 1 week) Appearance” value ([1]; 25° C./60% RH)?
**A.** No

**Q.** What about the “Stability results (Open for 1 week) Purity (area %)” value (shortened to “Stability results … (area %)”) ([1]; 25° C./60% RH) of the same molecule?
**A.** 99.73 area %

**Q.** What about the “Stability results (Open for 1 week) Form change” value ([1]; 25° C./60% RH) of the same molecule?
**A.** No

**Q.** And the “Stability results (Open for 1 week) Appearance” value ([1]; 40° C./75% RH)?
**A.** No

**Q.** What about the “Stability results … (area %)” value ([1]; 40° C./75% RH) of the same molecule?
**A.** 99.73 area %

**Q.** And the “Stability results (Open for 1 week) Form change” value ([1]; 40° C./75% RH)?
**A.** No

**Q.** And the “Initial Purity (area %)” value [1]?
**A.** 99.79 area %

**Q.** For `CCCn1cc(-n2c(Cl)c(Sc3cccc(C(=O)O)c3F)c3ccc(Cl)c(F)c32)cn1` [Form E], which “form transfer on exposure to ambient condition” value [3] is on record?
**A.** transferred back to Form A; also recorded: Freeform Type E transferred to freeform Type A after

**Q.** For `CCCn1cc(-n2c(Cl)c(Sc3cccc(C(=O)O)c3F)c3ccc(Cl)c(F)c32)cn1` [Form A + Form C], which “XRPD Result” value ([4]; Acetone, water activity 0.0, room temperature) is on record?
**A.** Form C

**Q.** What about the “XRPD Result” value ([4]; Acetone/H2O (605:395), water activity 0.8, room temperature) of the same molecule?
**A.** Form A

**Q.** What about the “XRPD Result” value ([4]; Acetone/H2O (858:142), water activity 0.6, room temperature) of the same molecule?
**A.** Form A

**Q.** What about the “XRPD Result” value ([4]; Acetone/H2O (950:50), water activity 0.4, room temperature) of the same molecule?
**A.** Form C

**Q.** What about the “XRPD Result” value ([4]; Acetone/H2O (986:14), water activity 0.2, room temperature) of the same molecule?
**A.** Form C

**Q.** What about the “XRPD Result” value ([4]; H2O, water activity 1.0, room temperature) of the same molecule?
**A.** Form A

**Q.** Which moisture uptake [2] does the source give for `CCCn1cc(-n2c(Cl)c(Sc3cccc(C(=O)O)c3F)c3ccc(Cl)c(F)c32)cn1` [Form 3 of Compound 1-B] here?
**A.** 0.1%

**Q.** What about the hygroscopicity [2] of the same molecule?
**A.** non-hygroscopic

**Q.** What about the “form change after DVS test” value ([2]; after DVS test) of the same molecule?
**A.** No form change

**Q.** What about the “degradation and/or form change” value [1] of the same molecule?
**A.** no significant degradation and/or form change

**Q.** What about the “Stability results (Open for 1 week) Appearance” value ([1]; 25° C./60% RH) of the same molecule?
**A.** No

**Q.** And the “Stability results … (area %)” value ([1]; 25° C./60% RH)?
**A.** 99.72 area %

**Q.** And the “Stability results (Open for 1 week) Form change” value ([1]; 25° C./60% RH)?
**A.** No

**Q.** What about the “Stability results (Open for 1 week) Appearance” value ([1]; 40° C./75% RH) of the same molecule?
**A.** No

**Q.** What about the “Stability results … (area %)” value ([1]; 40° C./75% RH) of the same molecule?
**A.** 99.73 area %

**Q.** What about the “Stability results (Open for 1 week) Form change” value ([1]; 40° C./75% RH) of the same molecule?
**A.** No

**Q.** And the “Initial Purity (area %)” value [1]?
**A.** 99.77 area %

Source: US20250282759A1, “POLYMORPHIC AND SALT FORMS OF THE AUTOTAXIN INHIBITOR CUDETAXESTAT” (Sabre Therapeutics LLC, priority 2022, published 2025)
